What is called IC50 is the concentration that gives 50% inhibition.

Among the data in patent US9056874B2, “Complement pathway modulators and uses thereof” (NOVARTIS AG, priority 2012, dated 2015) are IC50 values, retold here.

Assay [1] concerns the target T1, factor B (Homo sapiens, UniProt P00751). The assay can be described thus: factor B inhibition assay of Biological Example 1. The settings on record: IC50 (nM), assay of Biological Example 1 (Table 1). It is filed as biochemical. Further details: CVF-Bb complex prepared from purified cobra venom factor (1 μM), recombinant human complement factor B; made in house; host or cells: drosophila cells (factor B); E. coli (factor D used to form the complex).
Target sequence in this assay (P00751 260-764 limits assumed): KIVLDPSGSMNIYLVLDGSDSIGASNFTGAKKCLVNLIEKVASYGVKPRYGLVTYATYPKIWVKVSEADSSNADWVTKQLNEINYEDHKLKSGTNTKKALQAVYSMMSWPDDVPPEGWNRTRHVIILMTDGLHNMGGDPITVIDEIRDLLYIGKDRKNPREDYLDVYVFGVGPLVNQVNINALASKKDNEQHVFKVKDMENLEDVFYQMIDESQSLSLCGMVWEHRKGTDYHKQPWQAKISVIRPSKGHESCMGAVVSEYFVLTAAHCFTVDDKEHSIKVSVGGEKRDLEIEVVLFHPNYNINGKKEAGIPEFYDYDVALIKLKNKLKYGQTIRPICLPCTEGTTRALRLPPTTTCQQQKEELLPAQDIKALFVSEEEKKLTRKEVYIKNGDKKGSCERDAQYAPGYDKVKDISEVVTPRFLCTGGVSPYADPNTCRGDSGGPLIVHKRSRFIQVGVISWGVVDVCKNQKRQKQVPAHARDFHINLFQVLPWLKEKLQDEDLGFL
Target sequence in this assay (Q91132 23-649 partner limits assumed): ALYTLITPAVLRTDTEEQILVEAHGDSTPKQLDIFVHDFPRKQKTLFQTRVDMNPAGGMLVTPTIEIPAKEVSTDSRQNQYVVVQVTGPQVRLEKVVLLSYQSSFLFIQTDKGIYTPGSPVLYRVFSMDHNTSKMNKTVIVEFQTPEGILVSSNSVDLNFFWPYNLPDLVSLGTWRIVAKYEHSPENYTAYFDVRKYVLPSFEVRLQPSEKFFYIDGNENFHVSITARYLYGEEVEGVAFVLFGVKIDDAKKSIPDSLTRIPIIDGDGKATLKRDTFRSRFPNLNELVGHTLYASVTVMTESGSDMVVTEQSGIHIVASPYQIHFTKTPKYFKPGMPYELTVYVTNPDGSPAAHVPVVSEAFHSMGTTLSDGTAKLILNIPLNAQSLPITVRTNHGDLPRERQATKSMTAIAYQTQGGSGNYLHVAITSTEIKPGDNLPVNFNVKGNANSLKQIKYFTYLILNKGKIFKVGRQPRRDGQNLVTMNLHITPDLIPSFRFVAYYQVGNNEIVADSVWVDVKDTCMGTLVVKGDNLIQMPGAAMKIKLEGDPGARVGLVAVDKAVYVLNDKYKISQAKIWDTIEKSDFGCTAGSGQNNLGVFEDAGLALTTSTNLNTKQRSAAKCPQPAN
Target sequence in this assay (Q91132 733-984 partner limits assumed): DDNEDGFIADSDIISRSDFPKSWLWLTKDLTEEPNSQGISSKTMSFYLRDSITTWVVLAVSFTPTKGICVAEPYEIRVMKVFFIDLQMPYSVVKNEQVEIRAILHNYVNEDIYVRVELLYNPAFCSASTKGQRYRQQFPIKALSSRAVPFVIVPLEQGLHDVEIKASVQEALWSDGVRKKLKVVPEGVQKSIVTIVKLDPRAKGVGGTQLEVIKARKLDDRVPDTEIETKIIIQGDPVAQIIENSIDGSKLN
Target sequence in this assay (Q91132 1264-1642 partner limits assumed): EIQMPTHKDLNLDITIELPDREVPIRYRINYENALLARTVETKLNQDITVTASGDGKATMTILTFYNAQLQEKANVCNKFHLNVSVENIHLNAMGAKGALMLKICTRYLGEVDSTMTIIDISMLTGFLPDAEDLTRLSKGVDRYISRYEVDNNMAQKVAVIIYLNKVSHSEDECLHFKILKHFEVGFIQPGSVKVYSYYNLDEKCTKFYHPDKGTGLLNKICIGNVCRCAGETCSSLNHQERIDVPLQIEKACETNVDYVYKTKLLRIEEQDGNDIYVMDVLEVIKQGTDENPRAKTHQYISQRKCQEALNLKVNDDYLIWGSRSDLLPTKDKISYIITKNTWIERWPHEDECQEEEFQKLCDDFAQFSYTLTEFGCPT

Assay [2] deals with T1, factor B. The assay can be described thus: assay of Biological Example 2.7. It is filed as binding. Further details: made in house; host or cells: drosophila cells. The settings on record: assay of Biological Example 2.7 (Table 2).
Target sequence in this assay (P00751 26-764): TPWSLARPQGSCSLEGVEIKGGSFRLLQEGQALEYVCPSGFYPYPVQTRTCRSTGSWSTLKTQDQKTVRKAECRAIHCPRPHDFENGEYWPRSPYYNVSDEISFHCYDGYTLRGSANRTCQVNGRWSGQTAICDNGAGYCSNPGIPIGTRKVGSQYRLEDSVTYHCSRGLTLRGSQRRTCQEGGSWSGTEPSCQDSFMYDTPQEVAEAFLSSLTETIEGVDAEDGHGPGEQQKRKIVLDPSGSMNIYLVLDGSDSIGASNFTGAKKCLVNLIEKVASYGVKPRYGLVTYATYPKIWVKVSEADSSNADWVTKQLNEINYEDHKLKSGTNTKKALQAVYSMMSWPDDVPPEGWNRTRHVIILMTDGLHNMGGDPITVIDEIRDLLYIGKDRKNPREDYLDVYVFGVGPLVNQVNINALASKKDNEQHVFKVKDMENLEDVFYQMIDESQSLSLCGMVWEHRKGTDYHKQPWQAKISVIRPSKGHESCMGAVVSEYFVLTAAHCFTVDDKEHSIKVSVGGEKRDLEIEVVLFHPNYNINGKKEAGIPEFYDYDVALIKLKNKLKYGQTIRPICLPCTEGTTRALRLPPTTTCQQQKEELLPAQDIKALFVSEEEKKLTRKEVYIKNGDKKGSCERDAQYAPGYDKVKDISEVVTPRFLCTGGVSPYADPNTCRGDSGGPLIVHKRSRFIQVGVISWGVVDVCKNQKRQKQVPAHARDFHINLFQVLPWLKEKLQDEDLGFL

For `COc1cc(C)c2[nH]ccc2c1C(N)(c1nc2cc(C#N)ccc2[nH]1)C(F)(F)F` (racemic) [36-E b) (−), (−)-2-(1-amino-2,2,2-trifluoro-1-(5-methoxy-7-methyl-1H-indol-4-yl)ethyl)-1H-benzo[d]imidazole-5-carbonitrile], the 50% inhibitory concentration (IC50) in assay [1] was 40 nM; in assay [2], 30 nM. As to `COc1cc(C)c2[nH]ccc2c1C(C)(OC)c1nc2cc(C#N)ccc2[nH]1` (single isomer, unassigned; (-)) [27-B b) (−), (−)-2-(1-methoxy-1-(5-methoxy-7-methyl-1H-indol-4-yl)ethyl)-1H-benzo[d]imidazole-5-carbonitrile], the results for the IC50 in assay [1] and in assay [2] were 3 nM and 4 nM, respectively. Regarding `COc1cc(C)c2[nH]ccc2c1C(C)(N)c1nc2cc(C#N)ccc2[nH]1` (single isomer, unassigned; (-)) [41-B b) (−), (−)-2-(1-amino-1-(5-methoxy-7-methyl-1H-indol-4-yl)ethyl)-1H-benzo[d]imidazole-5-carbonitrile], the values for the IC50 in assay [1] and in assay [2] were 9 nM and 10 nM, respectively. Turning to `[2H]C([2H])([2H])OC(c1nc2cc(C#N)ccc2[nH]1)(c1c(OC)cc(C)c2[nH]ccc12)C(F)(F)F` (single isomer, unassigned; (-)) [137-J b) (−), (−)-2-(2,2,2-trifluoro-1-(^2H3)-methoxy-1-(5-methoxy-7-methyl-1H-indol-4-yl)ethyl)-1H-benzo[d]imidazole-5-carbonitrile], in assay [2], the IC50 was 10 nM.

As to `COc1cc(C)c2[nH]ccc2c1C(C)(OC)c1nc2cc(C#N)ccc2o1` (single isomer, unassigned; (-)) [137-K b) (−), (−)-2-(1-methoxy-1-(5-methoxy-7-methyl-1H-indol-4-yl)ethyl)benzo[d]oxazole-5-carbonitrile], the IC50 in assay [2] worked out at 200 nM.

Consider `COC(C)(c1nc2cc(C#N)ccc2o1)c1c(C2CC2)cc(C)c2[nH]ccc12` (single isomer, unassigned; (-)) [137-L b) (−), (−)-2-(1-(5-cyclopropyl-7-methyl-1H-indol-4-yl)-1-methoxyethyl)benzo[d]oxazole-5-carbonitrile], for which the half-maximal inhibitory concentration (IC50) in assay [2] stood at 270 nM.

`COc1cc(C)c2[nH]ccc2c1C(C)(O)c1nc2cc(C#N)ccc2o1` (single isomer, unassigned; (-)) [137-N b) (−), (−)-2-(1-hydroxy-1-(5-methoxy-7-methyl-1H-indol-4-yl)ethyl)benzo[d]oxazole-5-carbonitrile] returned an IC50 in assay [2] of 6 nM.

Take `COc1cc(C)c2[nH]ccc2c1C(CC(=O)O)c1nc2cc(C#N)ccc2o1` (single isomer, unassigned; (-)) [Example 148-E, (−)-3-(5-cyanobenzo[d]oxazol-2-yl)-3-(5-methoxy-7-methyl-1H-indol-4-yl)propanoic acid]: in assay [2], the IC50 came out at 420 nM.

`COc1cc(C)c2[nH]ccc2c1C(CCC(=O)O)c1nc2cc(C#N)ccc2o1` (single isomer, unassigned; (-)) [Example 149-D, (−)-4-(5-cyanobenzo[d]oxazol-2-yl)-4-(5-methoxy-7-methyl-1H-indol-4-yl)butanoic acid] displayed an IC50 in assay [2] of 120 nM. Consider `COc1cc(C)c2[nH]ccc2c1C(c1nc2cc(C#N)ccc2[nH]1)C(C)C(=O)O` (single isomer, unassigned; diastereomer a) [Example 147-D, (±)-3-(5-Cyano-1H-benzo[d]imidazol-2-yl)-3-(5-methoxy-7-methyl-1H-indol-4-yl)-2-methylpropanoic acid (Diastereomer A)], for which the IC50 in assay [2] amounted to 790 nM. In turn, `COc1cc(C)c2[nH]ccc2c1C(c1nc2cc(C#N)ccc2[nH]1)C(C)C(=O)O` (single isomer, unassigned; diastereomer b) [Example 147-E, (±)-3-(5-Cyano-1H-benzo[d]imidazol-2-yl)-3-(5-methoxy-7-methyl-1H-indol-4-yl)-2-methylpropanoic acid (Diastereomer B)] had an IC50 in assay [2] of 160 nM. Regarding `COc1cc(C)c2[nH]ccc2c1C(c1nc2cc(C#N)ccc2[nH]1)C(C)CO` (single isomer, unassigned; diastereomer b) [Example 147-F, (±)-2-(3-hydroxy-1-(5-methoxy-7-methyl-1H-indol-4-yl)-2-methylpropyl)-1H-benzo[d]imidazole-5-carbonitrile (Diastereomer B)], the IC50 in assay [2] amounted to 100 nM. As to `COc1cc(C)c2[nH]ccc2c1C(O)c1nc2cc(C#N)ccc2s1` (centres unmarked) [Example 137-C], the IC50 in assay [2] was determined as 62 nM.

As to `COc1cc(C)c2[nH]ccc2c1C(C)(N)c1nc2cc(C#N)ccc2s1` (centres unmarked) [Example 137-D], the IC50 in assay [2] worked out at 170 nM. Still for that read-out and setting: next, `COc1cc(C)c2[nH]ccc2c1C(N)c1nc2cc(C#N)ccc2s1` (centres unmarked) [Example 137-E]: 270 nM.

The molecule `COc1c(F)c(C)c2[nH]ccc2c1C(C)(N)c1nc2cc(C#N)ccc2[nH]1` (centres unmarked) [Example 137-G] yielded an IC50 in assay [2] of 29 nM.

`COc1c(F)c(C)c2[nH]ccc2c1C(C)(OC)c1nc2cc(C#N)ccc2[nH]1` (centres unmarked) [Example 137-H]: the IC50 in assay [2] came out at 31 nM.

With `Cc1cc(C)c2[nH]ccc2c1C(O)c1nc2ccc(C#N)cc2s1` (centres unmarked) [Example 137-O], in assay [2], the IC50 is 3160 nM. `Cc1cc(C)c2[nH]ccc2c1C(O)c1cc2cc(C#N)ccc2[nH]1` (centres unmarked) [Example 137-P]: the half-maximal inhibitory concentration (IC50) in assay [2] turned out to be 980 nM. `Cc1cc(C)c2[nH]ccc2c1C(O)c1cc2cc(C#N)ccc2o1` (centres unmarked) [Example 137-Q] returned a half-inhibitory concentration (IC50) in assay [2] of 1350 nM.

`Cc1cc(C)c2[nH]ccc2c1C(O)c1nc2cc(C#N)ccc2s1` (centres unmarked) [Example 137-R]: in assay [2], 790 nM corresponded to half-maximal inhibition (IC50). On to `COc1cc(C)c2[nH]ccc2c1C(C)(O)c1nc2ccc(C#N)cc2s1` (centres unmarked) [Example 137-S], for which it took 110 nM to reach half-maximal inhibition in assay [2] (IC50). On to `COc1cc(C)c2[nH]ccc2c1C(C)(O)c1cc2ccc(C#N)cc2[nH]1` (centres unmarked) [Example 137-T], for which the concentration for half-maximal inhibition (IC50) in assay [2] came out at 50 nM. In assay [2], `COc1cc(C)c2[nH]ccc2c1C(C)(O)c1cc2cc(C#N)ccc2[nH]1` (centres unmarked) [Example 137-U] displayed an IC50 of 35 nM. `COc1cc(C)c2[nH]ccc2c1C(C)(O)c1cc2cc(C#N)ccc2o1` (centres unmarked) [Example 137-V] yielded an IC50 in assay [2] of 23 nM.

In assay [2], `COc1cc(C)c2[nH]ccc2c1C(C)(OC)c1nc2ccc(C#N)cc2s1` (centres unmarked) [Example 137-W] registered a 50% inhibitory concentration (IC50) of 5220 nM. With `COc1cc(C)c2[nH]ccc2c1C(C)(O)c1cc2ccc(C#N)cc2o1` (centres unmarked) [Example 137-X], the IC50 in assay [2] worked out at 190 nM.

For `COc1cc(C)c2[nH]ccc2c1C(C)(OC)c1cc2ccc(C#N)cc2o1` (centres unmarked) [Example 137-Y], the IC50 in assay [2] is 820 nM. With `COc1cc(C)c2[nH]ccc2c1C(C)(OC)c1cc2cc(C#N)ccc2o1` (centres unmarked) [Example 137-Z], the IC50 in assay [2] is 520 nM.
